Drawing on patent US9040547B2, “Pyrrolopyrimidine and purine derivatives” (PFIZER INC., priority 2011, dated 2015), this text covers IC50 for five compounds.

Some results are limits rather than exact numbers.

By IC50 is commonly meant the concentration needed to halve the response being measured.

Holding throughout (assay type): cell-based
In experiment [1] the test system is PC-9. Kind of experiment: Cell proliferation assay (CellTiter-Glo), PC-9. The note with it: Homo sapiens, value marked (PC9), read-out: 3T3 del IC50, (PC9). On the procedure: (§1) Cell proliferation was measured using the CellTiter-Glo® Luminescent Cell Viability Assay. The assay involves the addition of a single reagent (CellTiter-Glo® Reagent) directly to cells cultured in serum-supplemented medium. The assay uses this one-step addition to induce cell lysis and generate a luminescent signal proportional to the amount of ATP present which is directly proportional to the number of metabolically active cells present in culture. The following cell lines were evaluated in this assay: NIH3T3/EGFR_L858R, NIH3T3/EGFR_E746-A750_deletion, NIH3T3/EGFR L858R+T790M, NIH3T3/EGFR_E746-A750_deletion+T790M, PC-9, PC9-DRH, NCI-H1975, and NCI-H3255. NIH/3T3 parental cells, NCI-H1975, and NCI-H3255 were purchased from the American Type Culture Collection (Manassas, Va.), and PC-9 cells were obtained from Japan. All cells were cultured according to recommendations. NIH/3T3 cells were grown in DMEM (Invitrogen, Carlsbad, Calif.) supplemented with 10% newborn calf serum (Invitrogen), and NIH3T3/EGFR mutant cells were grown in complete media with 5 μg/mL puromycin (Invitrogen). PC-9, NCI-H1975, and NCI-H3255 were grown in RPMI (Invitrogen, Carlsbad, Calif.) supplemented with 10% FBS (Sigma, St Louis, Mo.), and PC9-DRH cells were grown in complete media with 2 uM PF-00299804. Plasmids (pLPCX) with various EGFR constructs were made by GenScript (Piscataway, N.J.), and stable pools of NIH/3T3 cells expressing these constructs were made at Pfizer La Jolla. PC9-DRH cells were generated at Pfizer La Jolla by exposing cells to increasing concentrations of PF-00299804. Cells were plated in complete culture media (3000-5000 cells/well, 50 μl/well) on the bottom of white clear-bottom tissue culture treated microtiter plates (#3610, Corning Inc, Corning, N.Y.) and allowed to adhere overnight at 37° C., 5% CO2. The following day, compound dilution plates were prepared in 96 well clear V-bottom 0.5 mL polypropylene block plates (#3956, Corning, Inc). All cell lines were not evaluated for each compound. Each compound evaluated was prepared as a DMSO stock solution (10 mM). Compounds were tested in duplicate on each plate, with an 11-point serial dilution curve (1:3 dilution). Compound treatment (50 μl) was added from the compound dilution plate to the cell plate. The highest compound concentration was 1 or 10 μM (final), with a 0.3% final DMSO (#D-5879, Sigma, St Louis, Mo.) concentration. Plates were then incubated at 37° C., 5% CO2. After three to five days of compound treatment, CellTiter-Glo® Reagent (#G7573, Promega, Madison, Wis.) was prepared in one of two ways. If thawing a frozen aliquot of CellTiter-Glo® Reagent, the aliquot was thawed and equilibrated to room temperature prior to use while keeping it protected from light. Alternatively, new bottles of CellTiter-Glo® Buffer and CellTiter-Glo® Substrate were thawed and equilibrated to room temperature prior to use. CellTiter-Glo® Buffer (100 mL) was transferred into the amber bottle containing CellTiter-Glo® Substrate to reconstitute the lyophilized enzyme/substrate mixture, forming the CellTiter-Glo® Reagent. The reconstituted reagent was mixed by gently inverting the contents to obtain a homogeneous solution, and went into solution easily in less than one minute. Any unused reconstituted CellTiter-Glo® Reagent was immediately aliquoted and frozen at −20° C., protected from light. Cell plates were equilibrated at room temperature for approximately 30 minutes. An equivolume amount of CellTiter-Glo® Reagent (100 μL) was added to each well. Plates were mixed for two minutes on an orbital shaker to induce cell lysis, and then allowed to incubate at room temperature for 10 minutes to stabilize the luminescent signal. Luminescence was recorded using the PerkinElmer EnVision Excite Multilabel Reader used for endpoint reading for Luminescence detection (Waltham, Mass.). Data were analyzed using a four-parameter fit in Microsoft Excel. […]
For orientation: ATP-based viability assays read luminescence as a measure of living cells.

Experiment [2] deals with T1, EGFR Del (PC9) (Homo sapiens, UniProt P00533, DEL746-750).
T1 construct: endogenous in cells; host or cells: PC-9
Kind of experiment: EGFR ELISA, PC9 Del cells.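 Also: cellular EGFR autophosphorylation at Tyr1068 quantified by sandwich ELISA of cell lysates after 2 h compound exposure at 37 °C, 11-point threefold dilution series.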 Conditions: read-out: EGFR_ELISA9E PC9 Del IC50. For orientation: ELISA stands for enzyme-linked immunosorbent assay.

For experiment [3], the target named is T2, EGFR L858R+T790M, endogenous (Homo sapiens, UniProt P00533, L858R/T790M).
T2 construct: NCI-H1975 (EGFR L858R+T790M, endogenous); host or cells: NCI-H1975
The experiment in a line: pEGFR Y1068 ELISA assay, NCI-H1975 cells.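 Also: sandwich ELISA of endogenous phospho-EGFR (Tyr1068) in lysates of treated cells, 11-point 1:3 serial dilution tested in duplicate per plate.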 Conditions: value marked (H1975): NCI-H1975 cells, 2 hrs compound treatment; read-out: pEGFRY1068 ELISA3T3T790M—L858R IC50 (nM), (H1975).

The subject of experiment [4] is NCI-H3255. Kind of experiment: Cell proliferation assay (CellTiter-Glo), NCI-H3255. Conditions: Homo sapiens, value marked (H3255), read-out: 3T3 L858R IC50, (H3255). The protocol: as §1
Experiment [5] relates to NCI-H1975. Kind of experiment: Cell proliferation assay (CellTiter-Glo), NCI-H1975. The note with it: Homo sapiens, value marked (H1975), read-out: 3T3 L858R_T790M IC50, (H1975). The protocol: as §1
The target of experiment [6] is T3, EGFR wildtype, endogenous (Homo sapiens, UniProt P00533).
T3 construct: A549 (EGFR wildtype, endogenous); host or cells: A549
The experiment in a line: pEGFR Y1068 ELISA assay, A549 cells.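 Also: sandwich ELISA of phospho-EGFR Tyr1068 in cell lysates, cells exposed to compound for 2 h before EGF stimulation, 11-point threefold dilution series run in duplicate.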 Conditions: full serum media, stimulated 10 min with EGF (40 ng/mL), read-out: pEGFRY1068 ELISAA549 IC50.

Experiment [7] deals with T4, EGFR L858R, endogenous (Homo sapiens, UniProt P00533, L858R).
T4 construct: NCI-H3255 (EGFR L858R, endogenous); endogenous in cells; host or cells: NCI-H3255
The experiment in a line: pEGFR Y1068 ELISA assay, NCI-H3255 cells. Conditions: value marked (H3255): NCI-H3255 cells, 2 hrs compound treatment; read-out: pEGFRY1068 ELISA3T3 L858R IC50 (nM), (H3255).

Experiment [8] deals with PC9RK. Kind of experiment: Cell proliferation assay (CellTiter-Glo), PC9RK. Conditions: value marked (PC9RK), read-out: 3T3 del_T790M IC50, (PC9RK). The protocol: as §1, with “After three to five days of compound treatment, CellTiter-Glo® Reagent (#G7573, Promega, Madison, Wis.) was prepared in one of two ways. If thawing a frozen aliquot of CellTiter-Glo® Reagent, the aliquot was thawed and equilibrated to room temperature prior to use while keeping it protected from light. Alternatively, new bottles of CellTiter-Glo® Buffer and CellTiter-Glo® Substrate were thawed and equilibrated to room temperature prior to use. CellTiter-Glo® Buffer (100 mL) was transferred into the amber bottle containing CellTiter-Glo® Substrate to reconstitute the lyophilized enzyme/substrate mixture, forming the CellTiter-Glo® Reagent. The reconstituted reagent was mixed by gently inverting the contents to obtain a homogeneous solution, and went into solution easily in less than one minute. Any unused reconstituted CellTiter-Glo® Reagent was immediately aliquoted and frozen at −20° C., protected from light. Cell plates were equilibrated at room temperature for approximately 30 minutes. An equivolume amount of CellTiter-Glo® Reagent (100 μL) was added to each well. Plates were mixed for two minutes on an orbital shaker to induce cell lysis, and then allowed to incubate at room temperature for 10 minutes to stabilize the luminescent signal.” left out

Experiment [9] has as its target EGFR L858R (Homo sapiens, UniProt P00533, L858R). The experiment in a line: pEGFR Y1068 ELISA assay, NIH3T3/EGFR_L858R cells.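 Also: sandwich ELISA of phospho-EGFR Tyr1068 in lysates of stably transfected NIH/3T3 pools after 2 h compound exposure at 37 °C, 11-point threefold dilution series run in duplicate.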 The note with it: 3T3 cell line, 2 hrs compound treatment; read-out: pEGFRY1068 ELISA3T3 L858R IC50.
The target in experiment [10] is EGFR L858R+T790M (Homo sapiens, UniProt P00533, L858R/T790M). Kind of experiment: pEGFR Y1068 ELISA assay, NIH3T3/EGFR_L858R+T790M cells.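 Also: sandwich ELISA of EGFR phosphorylated at Tyr1068 in lysates of stably transfected NIH/3T3 cells, 11-point threefold dilution series run in duplicate.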 Conditions: 3T3 cell line, 2 hrs compound treatment; read-out: pEGFRY1068 ELISA3T3T790M—L858R IC50.
The target of experiment [11] is EGFR E746-A750 deletion (Homo sapiens, UniProt P00533, DEL746-750). The experiment in a line: pEGFR Y1068 ELISA assay, NIH3T3/EGFR_E746-A750 deletion cells.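 Also: sandwich ELISA on cell lysates detecting phospho-EGFR at Tyr1068, compounds run as 11-point threefold dilution series in duplicate, IC50 from inhibition of this phosphorylation signal.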 Conditions: 3T3 Del cells, 2 hrs compound treatment; read-out: ELISA7E 3T3 Del IC50.
EGFR E746-A750 deletion, sequence (P00533 with tags, fused parts or gaps DEL746-750): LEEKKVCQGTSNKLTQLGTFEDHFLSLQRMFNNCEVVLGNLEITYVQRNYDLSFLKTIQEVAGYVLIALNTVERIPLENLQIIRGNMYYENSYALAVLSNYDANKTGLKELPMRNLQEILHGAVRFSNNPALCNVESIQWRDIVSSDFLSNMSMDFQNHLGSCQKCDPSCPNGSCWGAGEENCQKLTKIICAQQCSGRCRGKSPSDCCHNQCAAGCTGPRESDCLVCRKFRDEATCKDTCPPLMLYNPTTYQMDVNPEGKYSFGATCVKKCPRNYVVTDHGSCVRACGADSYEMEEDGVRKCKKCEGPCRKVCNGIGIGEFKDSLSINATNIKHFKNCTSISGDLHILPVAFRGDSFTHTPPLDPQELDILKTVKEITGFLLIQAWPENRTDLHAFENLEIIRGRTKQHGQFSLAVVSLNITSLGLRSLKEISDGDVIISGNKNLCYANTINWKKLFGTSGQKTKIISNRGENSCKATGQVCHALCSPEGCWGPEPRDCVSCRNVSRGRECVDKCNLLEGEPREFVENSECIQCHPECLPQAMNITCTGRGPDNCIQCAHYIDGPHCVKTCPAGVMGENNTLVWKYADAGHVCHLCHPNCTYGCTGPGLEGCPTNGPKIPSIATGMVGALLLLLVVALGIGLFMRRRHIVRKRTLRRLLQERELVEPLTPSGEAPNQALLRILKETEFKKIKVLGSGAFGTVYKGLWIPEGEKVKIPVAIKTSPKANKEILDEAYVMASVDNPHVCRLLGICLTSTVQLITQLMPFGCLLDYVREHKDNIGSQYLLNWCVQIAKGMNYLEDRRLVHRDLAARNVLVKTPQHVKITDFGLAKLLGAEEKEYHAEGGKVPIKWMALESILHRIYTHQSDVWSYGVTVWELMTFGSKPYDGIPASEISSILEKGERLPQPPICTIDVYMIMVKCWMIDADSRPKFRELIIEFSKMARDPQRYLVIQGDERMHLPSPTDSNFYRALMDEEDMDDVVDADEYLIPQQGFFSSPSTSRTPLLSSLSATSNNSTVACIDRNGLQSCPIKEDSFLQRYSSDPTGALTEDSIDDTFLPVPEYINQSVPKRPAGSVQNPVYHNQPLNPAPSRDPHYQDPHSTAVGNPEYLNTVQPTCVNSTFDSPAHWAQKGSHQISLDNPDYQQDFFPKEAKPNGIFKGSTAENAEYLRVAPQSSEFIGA

EGFR L858R, sequence (P00533 25-1210 L858R): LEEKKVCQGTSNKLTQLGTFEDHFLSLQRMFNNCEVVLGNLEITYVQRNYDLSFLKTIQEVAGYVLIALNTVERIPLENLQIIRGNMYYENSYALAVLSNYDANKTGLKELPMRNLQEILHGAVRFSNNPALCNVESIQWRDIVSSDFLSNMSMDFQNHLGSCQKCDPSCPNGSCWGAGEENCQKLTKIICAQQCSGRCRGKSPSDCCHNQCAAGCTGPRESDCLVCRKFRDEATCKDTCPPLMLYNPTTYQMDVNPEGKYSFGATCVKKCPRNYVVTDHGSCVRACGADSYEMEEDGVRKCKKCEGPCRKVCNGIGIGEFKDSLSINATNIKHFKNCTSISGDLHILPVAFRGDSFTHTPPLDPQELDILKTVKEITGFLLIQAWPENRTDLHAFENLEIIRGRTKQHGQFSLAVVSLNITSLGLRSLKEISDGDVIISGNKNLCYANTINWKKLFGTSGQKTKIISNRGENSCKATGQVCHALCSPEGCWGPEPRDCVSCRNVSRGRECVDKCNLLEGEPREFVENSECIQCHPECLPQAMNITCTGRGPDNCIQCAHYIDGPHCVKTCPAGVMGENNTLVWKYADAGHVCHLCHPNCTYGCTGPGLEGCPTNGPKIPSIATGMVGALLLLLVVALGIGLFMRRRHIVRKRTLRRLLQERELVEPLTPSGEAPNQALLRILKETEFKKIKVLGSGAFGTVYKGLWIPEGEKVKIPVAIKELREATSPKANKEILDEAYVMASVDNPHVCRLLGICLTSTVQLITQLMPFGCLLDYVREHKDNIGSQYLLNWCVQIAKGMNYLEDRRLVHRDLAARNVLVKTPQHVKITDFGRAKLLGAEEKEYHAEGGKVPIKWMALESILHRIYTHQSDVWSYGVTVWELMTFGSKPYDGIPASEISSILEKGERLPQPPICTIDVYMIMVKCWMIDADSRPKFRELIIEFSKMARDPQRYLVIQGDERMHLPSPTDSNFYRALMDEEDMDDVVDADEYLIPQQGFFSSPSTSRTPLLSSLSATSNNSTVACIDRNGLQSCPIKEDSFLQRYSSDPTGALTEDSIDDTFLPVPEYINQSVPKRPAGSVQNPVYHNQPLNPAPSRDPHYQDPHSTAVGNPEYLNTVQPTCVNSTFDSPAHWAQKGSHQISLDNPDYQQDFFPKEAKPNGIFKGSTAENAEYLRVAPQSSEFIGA
T3 sequence (P00533 25-1210): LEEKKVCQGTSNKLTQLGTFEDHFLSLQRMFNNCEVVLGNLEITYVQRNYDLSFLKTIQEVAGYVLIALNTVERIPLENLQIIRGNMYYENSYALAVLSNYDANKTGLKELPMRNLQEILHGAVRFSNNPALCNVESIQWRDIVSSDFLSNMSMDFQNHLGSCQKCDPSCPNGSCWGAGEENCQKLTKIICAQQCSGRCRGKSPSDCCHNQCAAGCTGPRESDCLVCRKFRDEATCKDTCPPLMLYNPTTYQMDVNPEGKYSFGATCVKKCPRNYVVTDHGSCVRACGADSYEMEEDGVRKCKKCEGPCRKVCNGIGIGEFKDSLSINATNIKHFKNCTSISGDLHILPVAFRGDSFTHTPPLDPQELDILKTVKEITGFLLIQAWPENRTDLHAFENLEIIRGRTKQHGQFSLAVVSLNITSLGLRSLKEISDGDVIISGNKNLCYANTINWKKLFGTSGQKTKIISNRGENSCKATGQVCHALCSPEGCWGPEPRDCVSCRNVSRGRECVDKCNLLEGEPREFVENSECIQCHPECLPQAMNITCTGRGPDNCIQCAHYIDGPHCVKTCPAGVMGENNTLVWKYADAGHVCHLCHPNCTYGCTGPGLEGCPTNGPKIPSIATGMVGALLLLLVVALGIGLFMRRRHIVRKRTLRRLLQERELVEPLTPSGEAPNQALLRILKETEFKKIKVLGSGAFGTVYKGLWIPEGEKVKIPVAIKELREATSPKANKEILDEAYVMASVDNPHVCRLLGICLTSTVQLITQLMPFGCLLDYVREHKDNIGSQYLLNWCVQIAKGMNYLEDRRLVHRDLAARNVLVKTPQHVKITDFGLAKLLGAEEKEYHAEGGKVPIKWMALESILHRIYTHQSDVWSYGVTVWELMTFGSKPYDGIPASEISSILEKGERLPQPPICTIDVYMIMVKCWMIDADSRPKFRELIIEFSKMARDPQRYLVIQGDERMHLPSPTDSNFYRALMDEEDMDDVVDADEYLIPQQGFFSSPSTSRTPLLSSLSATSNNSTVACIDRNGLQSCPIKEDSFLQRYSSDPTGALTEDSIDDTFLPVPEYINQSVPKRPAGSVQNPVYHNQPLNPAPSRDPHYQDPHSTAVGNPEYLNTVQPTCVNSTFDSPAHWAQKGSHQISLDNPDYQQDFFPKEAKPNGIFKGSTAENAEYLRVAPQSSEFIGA
EGFR L858R+T790M, sequence (P00533 25-1210 T790M/L858R): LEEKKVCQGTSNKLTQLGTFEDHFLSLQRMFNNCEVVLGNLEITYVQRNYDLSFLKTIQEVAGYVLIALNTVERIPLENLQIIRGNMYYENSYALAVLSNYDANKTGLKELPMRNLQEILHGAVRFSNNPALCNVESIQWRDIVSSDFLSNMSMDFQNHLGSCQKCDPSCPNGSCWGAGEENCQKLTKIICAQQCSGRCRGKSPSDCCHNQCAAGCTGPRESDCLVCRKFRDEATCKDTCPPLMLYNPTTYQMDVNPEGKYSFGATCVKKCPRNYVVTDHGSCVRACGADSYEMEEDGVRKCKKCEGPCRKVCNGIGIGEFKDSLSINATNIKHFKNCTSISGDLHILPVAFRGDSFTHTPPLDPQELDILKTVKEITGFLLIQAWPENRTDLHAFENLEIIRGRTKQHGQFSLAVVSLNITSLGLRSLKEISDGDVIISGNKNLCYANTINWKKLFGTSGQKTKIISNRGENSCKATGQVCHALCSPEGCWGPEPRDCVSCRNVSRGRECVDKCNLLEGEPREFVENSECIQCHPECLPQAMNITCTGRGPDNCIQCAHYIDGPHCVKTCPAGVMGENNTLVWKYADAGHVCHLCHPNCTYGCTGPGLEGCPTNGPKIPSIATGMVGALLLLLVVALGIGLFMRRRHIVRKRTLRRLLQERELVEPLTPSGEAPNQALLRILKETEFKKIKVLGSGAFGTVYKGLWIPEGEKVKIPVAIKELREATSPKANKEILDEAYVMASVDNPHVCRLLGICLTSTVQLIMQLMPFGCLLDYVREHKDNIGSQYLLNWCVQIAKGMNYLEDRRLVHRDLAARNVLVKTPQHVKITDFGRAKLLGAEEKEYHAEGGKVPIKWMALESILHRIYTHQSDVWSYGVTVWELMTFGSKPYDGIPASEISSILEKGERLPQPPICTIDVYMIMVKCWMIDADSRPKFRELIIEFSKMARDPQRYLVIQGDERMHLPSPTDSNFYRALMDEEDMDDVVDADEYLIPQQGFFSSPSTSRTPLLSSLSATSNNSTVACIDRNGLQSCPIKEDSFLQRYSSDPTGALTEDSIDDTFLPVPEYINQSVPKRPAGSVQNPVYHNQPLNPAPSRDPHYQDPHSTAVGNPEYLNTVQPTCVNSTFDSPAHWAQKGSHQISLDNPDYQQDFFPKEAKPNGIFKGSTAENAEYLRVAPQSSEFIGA

For the compound `C=CC(=O)N[C@]1(C)C[C@H](Oc2nc(Nc3cnn(C)c3)nc3[nH]cc(Cl)c23)C1` [Example 114], the concentration for half-maximal inhibition (IC50) is 100 to 1000 nM in experiment [1]; 1200 nM in experiment [2]; 39 nM in experiment [3]; 10 to 100 nM in experiment [4]; 100 to 1000 nM in experiment [5]; > 10000 nM in experiment [6]. The IC50 was 667 nM in [7] and 100 to 1000 nM in experiment [8].

Regarding `C=CC(=O)N1C[C@H](COc2nc(Nc3cnn(CCO)c3)nc3[nH]cc(Cl)c23)[C@@H](OC)C1` [Example 101], the IC50 in [9] is 1010 nM; in [1], > 1000 nM; in experiment [2], 6540 nM; in [3], 48 nM; in [4], 100 to 1000 nM; in experiment [5], > 1000 nM. In addition, the IC50 was > 10000 nM in experiment [6] and 100 to 1000 nM in experiment [8].

Regarding `C=CC(=O)N1C[C@H](COc2nc(Nc3ccn(C)n3)nc3[nH]cc(Cl)c23)[C@@H](OC)C1` [Example 111], the IC50 in experiment [9] is 352 nM; in [1], 100 to 1000 nM; in experiment [10] it was 14 nM; in experiment [11], 886 nM; in [4] it was 100 to 1000 nM; in [5], > 1000 nM. Besides, in experiment [6], the IC50 is > 10000 nM.

Consider `C=CC(=O)N[C@H]1C[C@@H](Oc2nc(Nc3cnn(C)c3)nc3[nH]cc(-c4cccnc4)c23)C1` [Example 109], for which the IC50 in experiment [9] is 271 nM; in experiment [1], 10 to 100 nM; in experiment [10], 153 nM; in [2], 29 nM; in experiment [11], 32 nM; in [4], 100 to 1000 nM. The IC50 in experiment [5] was 100 to 1000 nM; in experiment [6], 5540 nM; in experiment [8] it was 100 to 1000 nM.

In the case of `C=CC(=O)N1C[C@H](COc2nc(Nc3cnn([C@H]4CCOC4)c3)nc3[nH]cc(Cl)c23)[C@@H](OC)C1` [Example 102], the concentration for half-maximal inhibition (IC50) was 297 nM in [9]; 100 to 1000 nM in [1]; 21 nM in experiment [10]; 709 nM in experiment [11]; 100 to 1000 nM in experiment [4]; 100 to 1000 nM in experiment [5]. Moreover, the half-inhibitory concentration (IC50) was 4960 nM in experiment [6] and 100 to 1000 nM in experiment [8].
